Converted amounts (≈) assume the structure as drawn. Numbered stars: 1 amine (or outer) side, 2 acyl side, 3 side chain; on linkers, the order of the positions; unused ones are H or OH. Peptide text beside a SMILES is read from it. * marks the point of attachment. C20 diacid = O=C(O)CCCCCCCCCCCCCCCCCCC(=O)*; C18 diacid = O=C(O)CCCCCCCCCCCCCCCCC(=O)*; γGlu = O=C(O)[C@H](CCC(=O)[*:2])N[*:1]; AEEA = NCCOCCOCC(=O)O

Solubility and solubility data for six compounds are collected here from patent publication US9593149B2, “Amylin and calcitonin receptor agonist” (Novo Nordisk A/S, priority 2014, dated 2017).

A short description of this data set: Assay (IV) determination of solubility. It is filed as physicochemical. As to the method:
Assay (IV)—Determination of Solubility
The mimylin peptide was dissolved in water at ˜500 nmol/ml and mixed 1:1 with a series of buffers (100 mM glycylglycine pH 3.0, 100 mM glycylglycine pH 4.0, 100 mM glycylglycine pH 5.0, 100 mM bistrispropane pH 6.0, 100 mM bistrispropane pH 6.5, 100 mM bistrispropane pH 7.0, 100 mM bistrispropane pH 7.5, 100 mM bistrispropane pH 8.0).

As for `CC(C)C[C@H](NC(=O)[C@H](CCC(=O)O)NC(=O)[C@H](Cc1cnc[nH]1)NC(=O)[C@H](CC(C)C)NC(=O)[C@H](CCC(=O)O)NC(=O)[C@H](C)NC(=O)[C@H](CO)NC(=O)[C@H](CC(C)C)NC(=O)[C@H](CCCNC(=N)N)NC(=O)CNC(=O)[C@H](CC(C)C)NC(=O)[C@@H](NC(=O)[C@H](C)NC(=O)[C@@H](NC(=O)[C@H](CO)NC(=O)[C@H](CC(C)C)NC(=O)[C@H](CCC(=O)O)NC(=O)[C@H](CO)NC(=O)[C@H](C)NC(=O)[C@H](CCC(=O)O)NC(=O)CCCCCCCCCCCCCCCCC(=O)O)[C@@H](C)O)C(C)C)C(=O)N[C@@H](C)C(=O)N[C@H](C(=O)N[C@@H](CC(C)C)C(=O)N1CCC[C@H]1C(=O)N[C@@H](CCCNC(=N)N)C(=O)N[C@H](C(=O)N[C@@H](CCC(=O)O)C(=O)N1CCC[C@H]1C(=O)NCC(=O)N1CCC[C@H]1C(=O)N[C@@H](CCC(=O)O)C(=O)N[C@@H](CO)C(=O)N1CCC[C@H]1C(N)=O)[C@@H](C)O)[C@@H](C)O` [compound 32, [N-terminal(C18 diacid), 9V, 28P]mimylin] ({C18 diacid}-EASELSTAVLGRLSAELHELATLPRTEPGPESP-NH2), the Solubility entry was “≧200 μM” (pH 3.0); “≧200 μM” (pH 4.0); “≧200 μM” (pH 5.0); “≧200 μM” (pH 6.0); “≧200 μM” (pH 6.5); “≧200 μM” (pH 7.0). In addition, the Solubility result by setting is: (pH 7.5) “≧200 μM”; (pH 8.0) “≧200 μM”.
`CC(C)C[C@H](NC(=O)[C@H](C)NC(=O)[C@H](C)NC(=O)[C@@H](NC(=O)[C@H](CO)NC(=O)[C@H](CC(C)C)NC(=O)[C@H](CCC(=O)O)NC(=O)[C@H](CO)NC(=O)[C@H](C)NC(=O)COCCOCCNC(=O)COCCOCCNC(=O)CC[C@H](NC(=O)CCCCCCCCCCCCCCCCCCC(=O)O)C(=O)O)[C@@H](C)O)C(=O)NCC(=O)N[C@@H](CCCNC(=N)N)C(=O)N[C@@H](CC(C)C)C(=O)N[C@@H](CO)C(=O)N[C@@H](C)C(=O)N[C@@H](CCC(=O)O)C(=O)N[C@@H](CC(C)C)C(=O)N[C@@H](Cc1cnc[nH]1)C(=O)N[C@@H](CCC(=O)O)C(=O)N[C@@H](CC(C)C)C(=O)N[C@@H](C)C(=O)N[C@H](C(=O)N[C@@H](CC(C)C)C(=O)N1CCC[C@H]1C(=O)N[C@@H](CCCNC(=N)N)C(=O)N[C@H](C(=O)N[C@@H](CCC(=O)O)C(=O)N[C@H](C(=O)NCC(=O)N[C@@H](CO)C(=O)NCC(=O)N[C@@H](CO)C(=O)N1CCC[C@H]1C(N)=O)[C@@H](C)O)[C@@H](C)O)[C@@H](C)O` [compound 42, [N-terminal(C20 diacid-gGlu-2xOEG), des1, 30S, 31G]mimylin] ({C20 diacid-γGlu-AEEA-AEEA}-ASELSTAALGRLSAELHELATLPRTETGSGSP-NH2): the Solubility entry is recorded as “≧200 μM” (pH 3.0); “≧200 μM” (pH 4.0); “≧200 μM” (pH 5.0); “≧200 μM” (pH 6.0); “≧200 μM” (pH 6.5); “≧200 μM” (pH 7.0). In addition, the Solubility result (pH 7.5) is “≧200 μM” and the Solubility entry (pH 8.0) is reported as “≧200 μM”.
For `CC(C)C[C@H](NC(=O)[C@H](CCCNC(=N)N)NC(=O)CNC(=O)[C@H](CC(C)C)NC(=O)[C@@H](NC(=O)[C@H](C)NC(=O)[C@@H](NC(=O)[C@@H](NC(=O)[C@H](CC(C)C)NC(=O)[C@H](CCC(=O)O)NC(=O)[C@H](CO)NC(=O)[C@H](C)NC(=O)CC[C@H](NC(=O)CCCCCCCCCCCCCCCCC(=O)O)C(=O)O)[C@@H](C)O)[C@@H](C)O)C(C)C)C(=O)N[C@@H](CCC(=O)O)C(=O)N[C@@H](C)C(=O)N[C@@H](CCC(=O)O)C(=O)N[C@@H](CC(C)C)C(=O)N[C@@H](Cc1cnc[nH]1)C(=O)N[C@@H](CCC(=O)O)C(=O)N[C@@H](CC(C)C)C(=O)N[C@H](C(=O)N[C@H](C(=O)N[C@@H](CC(C)C)C(=O)N1CCC[C@H]1C(=O)N[C@@H](CCCNC(=N)N)C(=O)N[C@H](C(=O)N[C@@H](CCC(=O)O)C(=O)N[C@H](C(=O)NCC(=O)N[C@H](C(=O)NCC(=O)N[C@H](C(=O)N1CCC[C@H]1C(N)=O)[C@@H](C)O)[C@@H](C)O)[C@@H](C)O)[C@@H](C)O)[C@@H](C)O)[C@@H](C)O` [compound 106, [N-terminal(C18 diacid-gGlu), des1, 6T, 9V, 14E, 21T, 30T, 31G, 32T]mimylin] ({C18 diacid-γGlu}-ASELTTAVLGRLEAELHELTTLPRTETGTGTP-NH2), the Solubility result (pH 3.0) is “≧200 μM”; the Solubility entry (pH 4.0) is listed as “≧200 μM”; the Solubility entry (pH 5.0) is on record as “≧200 μM”; the Solubility result (pH 6.0) is recorded as “≧200 μM”; the Solubility entry (pH 6.5) is reported as “≧200 μM”; the Solubility result (pH 7.0) is on record as “≧200 μM”. Also, the Solubility entry (pH 7.5) is listed as “≧200 μM” and the Solubility result (pH 8.0) is “≧200 μM”.
On to `CC(C)C[C@H](NC(=O)[C@H](C)NC(=O)[C@H](C)NC(=O)[C@@H](NC(=O)[C@H](CO)NC(=O)[C@H](CC(C)C)NC(=O)[C@H](CCC(=O)O)NC(=O)[C@H](CO)NC(=O)[C@H](C)NC(=O)CC[C@H](NC(=O)CCCCCCCCCCCCCCCCC(=O)O)C(=O)O)[C@@H](C)O)C(=O)NCC(=O)N[C@@H](CCCNC(=N)N)C(=O)N[C@@H](CC(C)C)C(=O)N[C@@H](CO)C(=O)N[C@@H](C)C(=O)N[C@@H](CCC(=O)O)C(=O)N[C@@H](CC(C)C)C(=O)N[C@@H](Cc1cnc[nH]1)C(=O)N[C@@H](CCC(=O)O)C(=O)N[C@@H](CC(C)C)C(=O)N[C@@H](C)C(=O)N[C@H](C(=O)N[C@@H](CC(C)C)C(=O)N1CCC[C@H]1C(=O)N[C@@H](CCCNC(=N)N)C(=O)N[C@H](C(=O)N[C@@H](CCC(=O)O)C(=O)N[C@H](C(=O)NCC(=O)N[C@@H](CO)C(=O)N1CCC[C@H]1C(=O)N[C@@H](CO)C(=O)N1CCC[C@H]1C(N)=O)[C@@H](C)O)[C@@H](C)O)[C@@H](C)O` [compound 35, [N-terminal(C18 diacid-gGlu), des1, 30S, 31P]mimylin] ({C18 diacid-γGlu}-ASELSTAALGRLSAELHELATLPRTETGSPSP-NH2), for which the Solubility result is, setting by setting: (pH 3.0) “≧200 μM”; (pH 4.0) “≧200 μM”; (pH 5.0) “≧200 μM”; (pH 6.0) “≧200 μM”; (pH 6.5) “≧200 μM”; (pH 7.0) “≧200 μM”. Also, the Solubility entry runs as follows: (pH 7.5) “≧200 μM”; (pH 8.0) “≧200 μM”.
For `CC(C)C[C@H](NC(=O)[C@H](C)NC(=O)[C@H](C)NC(=O)[C@@H](NC(=O)[C@H](CO)NC(=O)[C@H](CC(C)C)NC(=O)[C@H](CCC(=O)O)NC(=O)[C@H](CO)NC(=O)[C@H](C)NC(=O)CC[C@H](NC(=O)CCCCCCCCCCCCCCCCCCC(=O)O)C(=O)O)[C@@H](C)O)C(=O)NCC(=O)N[C@@H](Cc1cnc[nH]1)C(=O)N[C@@H](CC(C)C)C(=O)N[C@@H](CO)C(=O)N[C@@H](C)C(=O)N[C@@H](CCC(=O)O)C(=O)N[C@@H](CC(C)C)C(=O)N[C@@H](Cc1cnc[nH]1)C(=O)N[C@@H](CCC(=O)O)C(=O)N[C@@H](CC(C)C)C(=O)N[C@@H](C)C(=O)N[C@H](C(=O)N[C@@H](CC(C)C)C(=O)N1CCC[C@H]1C(=O)N[C@@H](Cc1cnc[nH]1)C(=O)N[C@H](C(=O)N[C@@H](CCC(=O)O)C(=O)N[C@H](C(=O)NCC(=O)N[C@@H](CO)C(=O)NCC(=O)N[C@@H](CO)C(=O)N1CCC[C@H]1C(N)=O)[C@@H](C)O)[C@@H](C)O)[C@@H](C)O` [compound 84, [N-terminal(C20 diacid-gGlu), des1, 12H, 25H, 30S, 31G]mimylin] ({C20 diacid-γGlu}-ASELSTAALGHLSAELHELATLPHTETGSGSP-NH2), the Solubility entry is on record as “≧200 μM” (pH 3.0); “≧200 μM” (pH 4.0); “≧200 μM” (pH 5.0); “≧200 μM” (pH 6.0); “≧200 μM” (pH 6.5); “≧200 μM” (pH 7.0). For the same compound, the Solubility entry was “≧200 μM” (pH 7.5) and “≧200 μM” (pH 8.0).
Regarding `CC(C)C[C@H](NC(=O)[C@H](C)NC(=O)[C@H](C)NC(=O)[C@@H](NC(=O)[C@H](CO)NC(=O)[C@H](CC(C)C)NC(=O)[C@H](CCC(=O)O)NC(=O)[C@H](CO)NC(=O)[C@H](C)NC(=O)CC[C@H](NC(=O)CCCCCCCCCCCCCCCCCCC(=O)O)C(=O)O)[C@@H](C)O)C(=O)NCC(=O)N[C@@H](CCCNC(=N)N)C(=O)N[C@@H](CC(C)C)C(=O)N[C@@H](CO)C(=O)N[C@@H](C)C(=O)N[C@@H](CCC(=O)O)C(=O)N[C@@H](CC(C)C)C(=O)N[C@@H](Cc1cnc[nH]1)C(=O)N[C@@H](CCC(=O)O)C(=O)N[C@@H](CC(C)C)C(=O)N[C@@H](CO)C(=O)N[C@H](C(=O)N[C@@H](Cc1ccc(O)cc1)C(=O)N1CCC[C@H]1C(=O)N[C@@H](CCCNC(=N)N)C(=O)N[C@H](C(=O)N[C@@H](CCC(=O)O)C(=O)N[C@H](C(=O)NCC(=O)N[C@@H](CO)C(=O)NCC(=O)N[C@@H](CO)C(=O)N[C@@H](Cc1ccc(O)cc1)C(N)=O)[C@@H](C)O)[C@@H](C)O)[C@@H](C)O` [compound 97, [N-terminal(C20 diacid-gGlu), des1, 21S, 23Y, 30S, 31G, 33Y]mimylin] ({C20 diacid-γGlu}-ASELSTAALGRLSAELHELSTYPRTETGSGSY-NH2), the Solubility entry is listed as “≧200 μM” (pH 3.0); “≧200 μM” (pH 4.0); “≧200 μM” (pH 6.0); “≧200 μM” (pH 6.5); “≧200 μM” (pH 7.0); “≧200 μM” (pH 7.5). Under “pH 8.0”, the Solubility entry was “≧200 μM”. Where the note is “pH 5.0”, the solubility at 18 h is given as 40 µM (≈ 152 µg/mL).
